The experiment has as its system bovine embryos. Nature of the experiment: Example 9: L-NAME (1 or 1000 nM) added to mBECM containing serum and Hb, pre-hatching development. Particulars: Hb 1 μg/ml, no L-NAME. Details: key to Least square mean of embryos developed to 16-cell / Least square mean of embryos developed to Blastocyst / Least square mean of embryos developed to 2-cell / Least square mean of embryos developed to 8-cell / Least square mean of embryos developed to Morula: fraction developed; each embryo scored 1 = developed, 0 = not developed. The format is cell-based. As to the method: The basic medium used for maturation of oocytes was tissue culture medium (TCM)-199 with Earle's salts, buffered with 25 mM HEPES (Gibco BRL, Grand Island, N.Y.) and supplemented with 10% (v/v) heat-inactivated fetal bovine serum (FBS; Hyclone Laboratories, Logan, Utah), 1 μg/ml estradiol-17β (NOBL Laboratories, Sioux Center, Iowa), 3 μg/ml bovine FSH (NOBL Laboratories), 6 μg/ml bovine LH (NOBL Laboratories), and 25 μg/ml gentamycin (Sigma Chemical Co., St. Louis, Mo.). The basic medium used for treatment of spermatozoa and fertilization of oocytes was a modified Tyrode's medium (J. Parrish et al., Capacitation of bovine sperm by heparin. Biol. Reprod. 38:1171-1180 (1988)), supplemented with 0.25 mM sodium pyruvate (Gibco BRL), 6 mg/ml fatty acid (FA)-free BSA (No. A-6003, Sigma), 15 μg/ml calcium heparin from porcine intestinal mucosa (183 USP/mg; H-8398, Sigma), and 25 μg/ml gentamycin. Modified bovine embryo culture medium (mBECM) containing 10 μM β-mercaptoethanol was used for culture of embryos, as described in J. Lim et al., “Roles of growth factors in the development of bovine embryos fertilized in vitro and cultured singly in a defined medium,” Reprod. Fertil. Dev., 8:1199-1205 (1996). mBECM supplemented with 10% (v/v) FBS was used for co-culturing inseminated oocytes with CGC. Osmolarity of the medium was maintained within the range of 265-290 mOsm.
All cumulus-oocyte complexes (COC) were collected in Madison, Wis. (BOMED, Inc.) and were shipped in 2 ml of maturation medium in a battery powered incubator via overnight express mail service. Oocytes matured during transit and arrived within 24 h after exposure to maturation medium, pre-equilibrated at 39° C. in 5% CO2 in air. At 22 to 24 h after exposure to the medium, the COCs were inseminated in vitro as described in J. Lim et al., “Intracytoplasmic glutathione concentration and the role of β-mercaptoethanol in preimplantation development of bovine embryos,” Theriogenology, 46:429-439 (1996). At 18 h post-insemination, COCs were cultured in groups (28-40 embryos) in a 4-well multidish (Nunc, Roskilde, Denmark) containing 0.8-ml of mBECM. Embryos were dislodged from CGC at 36 to 48 h post-insemination.
In Example 9, IVF embryos were cultured in MBECM supplemented as follows: 1) no addition (control), 2) Hb (1 μg/ml), 3) Hb plus L-NAME (1 nM), and 4) Hb plus L-NAME (1000 nM). Embryonic development was evaluated up to 192 h post-insemination. A total of 384 oocytes were inseminated, and were randomly and equally allotted to 4 replicates.
Embryos developed to the 2-cell, 8-cell, 16-cell, morula, and blastocyst stages at the pertinent observation times were individually scored ‘1’ (developed). Embryos that had not developed to these stages at the same times were scored ‘0’ (non-developed). Sums of the scores at each stage of development were evaluated by analysis of variance using a general linear model (PROC-GLM) in the SAS statistical programming package (1991). In Example 8, the combined effects of Hb addition and month of oocyte collection were first examined in a 2×7 factorial arrangement. Overall differences in embryonic development in Hb-free and Hb-containing culture systems were further evaluated. […] Differences were regarded as statistically significant where P values were less than 0.05.

“And” between values parts separate entries of the source, which are not always exact repeats. Equal entries are not always repeated.

For hemoglobin [Hb], the “Number of embryos developed to 2-cell” value (96 embryos, 48 h) is 68. Besides, where the note is “96 embryos, 60 h”, the “Number of embryos developed to 8-cell” value came to 54. In addition, for the setting “96 embryos, 120 h”, the “Number of embryos developed to 16-cell” value was determined as 47. Under “96 embryos, 144 h”, the “Number of embryos developed to Morula” value stood at 35. Moreover, the “Number of embryos developed to Blastocyst” value (96 embryos, 192 h) was determined as 30. Also, the “Least square mean of embryos developed to 2-cell” value (48 h) is listed as 0.708. For the setting “60 h”, the “Least square mean of embryos developed to 8-cell” value worked out at 0.563. Besides, the “Least square mean of embryos developed to 16-cell” value (120 h) came to 0.489. The “Least square mean of embryos developed to Morula” value (144 h) is 0.365. The “Least square mean of embryos developed to Blastocyst” value (192 h) was 0.312 and 0.313.

Source of the values: patent US6864086B2, “Nitric oxide-scavenging system for culturing oocytes, embryos, or other cells” (Board of Supervisors of Louisiana State University and …, priority 1998, dated 2005).
